According to patent US20190309272A1, “Genetically Modified Cell Lines Including a TP53 Modification and Methods of Use” (UNIVERSITY OF SOUTH CAROLINA, priority 2018, published 2019):
Structures can show the parent of a compound that is named as a salt.

Experiments:
Format in all cases: cell-based, Human
Settings in all cases: ten-day drug treatment, 156.25 nM to 10 μM, resazurin fluorescence
MCF7 WT Parental pool = assay: Drug screening, resazurin, MCF7 wild type parental pool
MCF7 TP53 KO 3.4 pool = assay: Drug screening, resazurin, TP53 KO 3.4 pool
MCF7 TP53 KO 5.6 pool = assay: Drug screening, resazurin, TP53 KO 5.6 pool

Row | Compound | MCF7 WT Parental pool (AUC) (MCF7 WT Parental pool) | TP53 KO 3.4 pool (AUC) (MCF7 TP53 KO 3.4 pool) | TP53 KO 5.6 pool (AUC) (MCF7 TP53 KO 5.6 pool)
1 | CC(C)Cn1cnc2c(N)nc3ccccc3c21 [Imiquimod] | 9.496 | 9.359 | 9.449
2 | C/C(=C\c1csc(C)n1)[C@@H]1C[C@@H]2O[C@]2(C)CCC[C@H](C)[C@H](O)[C@@H](C)C(=O)C(C)(C)[C@@H](O)CC(=O)N1 [Ixabepilone] | 1.397 | 1.543 | 1.473
3 | CC(C)C[C@H](NC(=O)CNC(=O)c1cc(Cl)ccc1Cl)B(O)O [Ixazomib] | 0.719 | 0.7086 | 0.8766
4 | CS(=O)(=O)CCNCc1ccc(-c2ccc3ncnc(Nc4ccc(OCc5cccc(F)c5)c(Cl)c4)c3c2)o1 [Laptinib] | 5.364 | 5.619 | 5.857
5 | Nc1cccc2c1CN(C1CCC(=O)NC1=O)C2=O (stereo not drawn) [Lenalidomide] | 8.724 | 8.782 | 8.801
6 | O=NN(CCCl)C(=O)NC1CCCCC1 [Lomustine] | 9.62 | 9.629 | 9.491
7 | CC(=O)O[C@]1(C(C)=O)CC[C@H]2[C@@H]3C=C(C)C4=CC(=O)CC[C@]4(C)[C@H]3CC[C@@]21C [Megestrol Acetate] | 9.824 | 9.221 | 9.555
8 | N[C@@H](Cc1ccc(N(CCCl)CCCl)cc1)C(=O)O [Melphalan Hydrochloride] | 5.766 | 6.158 | 5.95
9 | S=c1nc[nH]c2nc[nH]c12 [Mercaptopurine] | 6.103 | 5.941 | 5.636
10 | COc1c2occc2cc2ccc(=O)oc12 [Methoxsalen] | 8.476 | 10.56 | 10.48
11 | CO[C@@]12[C@H](COC(N)=O)C3=C(C(=O)C(C)=C(N)C3=O)N1C[C@@H]1N[C@@H]12 [Mitomycin] | 1.122 | 1.003 | 0.912
12 | Clc1ccc(C(c2ccccc2Cl)C(Cl)Cl)cc1 (stereo not drawn) [Mitotane] | 5.932 | 11.01 | 10.17
13 | COc1nc(N)nc2c1ncn2[C@@H]1O[C@H](CO)[C@@H](O)[C@@H]1O [Nelarabine] | 8.659 | 11.04 | 10.08
14 | Cc1cn(-c2cc(NC(=O)c3ccc(C)c(Nc4nccc(-c5cccnc5)n4)c3)cc(C(F)(F)F)c2)cn1 [Nilotinib] | 5.834 | 6.967 | 4.891
15 | O=C(c1cc(Cc2n[nH]c(=O)c3ccccc23)ccc1F)N1CCN(C(=O)C2CC2)CC1 [Olaparib] | 5.48 | 8.58 | 7.433
16 | COC(=O)C[C@](O)(CCCC(C)(C)O)C(=O)O[C@@H]1C(OC)=C[C@]23CCCN2CCc2cc4c(cc2[C@H]13)OCO4 [Omacetaxine Mepesuccinate] | 0.7749 | 0.7692 | 0.7717
17 | C=CC(=O)Nc1cc(Nc2nccc(-c3cn(C)c4ccccc34)n2)c(OC)cc1N(C)CCN(C)C [Osimertinib] | 4.149 | 4.056 | 4.044
18 | CC(=O)O[C@H]1C(=O)[C@@]2(C)[C@H]([C@H](OC(=O)c3ccccc3)[C@]3(O)C[C@H](OC(=O)[C@H](O)[C@@H](NC(=O)c4ccccc4)c4ccccc4)C(C)=C1C3(C)C)[C@]1(OC(C)=O)CO[C@@H]1C[C@@H]2O [Paclitaxel] | 1.453 | 1.453 | 1.432
19 | Cc1[nH]c2ccccc2c1CCNCc1ccc(/C=C/C(=O)NO)cc1 [Panobinostat] | 0.6418 | 0.5862 | 0.5971
20 | Cc1ccc(Nc2nccc(N(C)c3ccc4c(C)n(C)nc4c3)n2)cc1S(N)(=O)=O [Pazopanib Hydrochloride] | 6.767 | 6.259 | 6.349
21 | Nc1nc2[nH]cc(CCc3ccc(C(=O)N[C@@H](CCC(=O)O)C(=O)O)cc3)c2c(=O)[nH]1 [Pemetrexed Disodium Salt Heptahydrate] | 2.501 | 2.438 | 2.852
